Results: publication PMC7377239, “Cardiovascular Effects of Polychlorinated Biphenyls and Their Major Metabolites” (Environmental Health Perspectives, 2020)
Counter-ions that a name gives are not always drawn. Like-named read-outs stand apart in the source and are kept apart here.

Tests used:
HUVECs = assay: High-content imaging cytotoxicity in HUVECs, 24 h; type: cell-based, human; settings: Homo sapiens, HUVEC, 24 h, HUVEC, 24 hr
Method in brief: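 HUVECs (passages 1–5) grown to monolayer over 3–5 d, then exposed 24 h at 37°C, 5% CO2; stained with Hoechst 33342, MitoTracker Orange and calcein AM and imaged at 10×. Readouts normalized to 0.5% DMSO vehicle, four-parameter logistic fit; POD at one-SD cutoff, 100μM assigned when no response.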

[1] = system: iCell endothelial cells (human iPSC-derived ECs); assay: High-content imaging cytotoxicity in iCell endothelial cells, 24 h; type: cell-based; settings: Homo sapiens, Endothelial cell, endothelial cells (endo), 24 hr
Method in brief: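 Human iPSC-derived endothelial cells (passages 1–5) were grown to a fibronectin-coated monolayer, then exposed 24 h at 37 °C with 0.5% DMSO vehicle. Staining was Hoechst 33342, MitoTracker Orange and calcein AM, read by high-content imaging. Point of departure came from 4-parameter logistic fits, with a 1-SD vehicle cutoff and 100 µM as the top concentration.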

[2] = cyto, read-out: POD huvec.cyto.24hr
[3] = mito, read-out: POD huvec.mito.24hr
[4] = mitoint, read-out: POD huvec.mitoint.24hr
[5] = nma, read-out: POD huvec.nma.24hr
[6] = tc, read-out: POD huvec.tc.24hr
[7] = cyto, read-out: POD endo.cyto.24hr
[8] = mito, read-out: POD endo.mito.24hr
[9] = mitoint, read-out: POD endo.mitoint.24hr
[10] = nma, read-out: POD endo.nma.24hr

| SMILES | minimal effective concentration (HUVECs; [2]) [µM] | minimal effective concentration (HUVECs; [3]) [µM] | minimal effective concentration (HUVECs; [4]) [µM] | minimal effective concentration (HUVECs; [5]) [µM] | minimal effective concentration (HUVECs; [6]) [µM] | minimal effective concentration [1, 7] [µM] | minimal effective concentration [1, 8] [µM] | minimal effective concentration [1, 9] [µM] | minimal effective concentration [1, 10] [µM] | minimal effective concentration ([1]; tc, read-out: POD endo.tc.24hr) [µM] |
| --- | --- | --- | --- | --- | --- | --- | --- | --- | --- | --- |
| O=S(=O)(O)Oc1ccc(-c2cccc(Cl)c2)cc1Cl [4-PCB 11 sulfate] | 48.8 | 45.1 | 10.8 | 2.98 | 48.8 | 100 | 100 | 100 | 100 | 100 |
| O=S(=O)(O)Oc1cc(Cl)c(-c2cc(Cl)ccc2Cl)cc1Cl [4-PCB 52 sulfate] | 5.38 | 3.31 | 61.2 | 33.9 | 5.38 | 41.2 | 41.2 | 100 | 100 | 50.3 |
